Some test systems named below: NCI/ADR-RES; MDA-N; NCI-H522; SF-539; A549; HCC 2998; BT-549; NCI-H460; NCI-H226; HOP-62; MDA-MB-231; T47D; NCI-H23; ACHN; SNB-75; EKVX; LOX IMVI; OVCAR-8; CCRF-CEM; DU-145.
Assay in all cases: NCI anticancer screen, dose series, 48 h

The structures appear in SMILES notation.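 Protocol summary: plate cells (96-well), add compound at 5 concentrations, incubate 48 h, interpolate endpoints linearly. The concentration for 50% growth inhibition is given as GI50.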 Calls of active or inactive are those of the source. Cut-off read from the data, not from the text of the source: active = GI50 up to about 1.1 µM and inactive = higher. Where only a bound is given, the exact number is not on record here.

For the compound `Cc1cc(NS(=O)(=O)c2ccc(NC(=O)c3ccc4nc5ccccc5c(Nc5ccc(S(N)(=O)=O)cc5)c4c3)cc2)no1`, the GI50 with NCI/ADR-RES is 31.8 µM (inactive); in the test with MDA-N it was 25.6 µM (inactive); in the test with NCI-H522, 17.8 µM (inactive); in the test with SF-539, 27.9 µM (inactive); in the test with A549, 24.6 µM (inactive); in the test with HCC 2998, 38.9 µM (inactive). The GI50 is 28 µM (inactive) with BT-549; 20.7 µM (inactive) in the test on NCI-H460; > 100 µM (inactive) with NCI-H226; 33.6 µM (inactive) with HOP-62; 24 µM (inactive) in the test on MDA-MB-231; 24.2 µM (inactive) in the test on T47D. Also, the GI50 was 33 µM (inactive) in the test on NCI-H23; 21.3 µM (inactive) in the test with ACHN; 38.2 µM (inactive) with SNB-75; 24.7 µM (inactive) with EKVX; 13.6 µM (inactive) with LOX IMVI; 24.6 µM (inactive) in the test with OVCAR-8. Besides, the GI50 was 22.6 µM (inactive) with CCRF-CEM and 48.3 µM (inactive) in the test on DU-145.

As to `CC(C)(C)C1CCC2c3c([nH]c4ccccc34)C3C(=O)N(c4cccc(Cl)c4)C(=O)C3C2C1` (stereo not given), the GI50 is 13.6 µM (inactive) in the test with NCI/ADR-RES; 11 µM (inactive) in the test with MDA-N; 15.8 µM (inactive) in the test on NCI-H522; 17.5 µM (inactive) in the test with SF-539; 14.2 µM (inactive) in the test with A549; 3.72 µM (inactive) with HCC 2998. For the same compound, the GI50 in the test with BT-549 is 21.1 µM (inactive); with NCI-H460, 4.63 µM (inactive); in the test on NCI-H226, 19 µM (inactive); in the test on HOP-62, 0.518 µM (active); in the test on MDA-MB-231, 14.2 µM (inactive); with T47D, 9.16 µM (inactive). For the same compound, the GI50 was 8.49 µM (inactive) in the test on NCI-H23; 9.33 µM (inactive) in the test with ACHN; 14.1 µM (inactive) in the test on SNB-75; 11.5 µM (inactive) in the test on EKVX; 7.48 µM (inactive) with LOX IMVI; 17.7 µM (inactive) in the test on OVCAR-8. The GI50 in the test on CCRF-CEM was 4.3 µM (inactive); in the test with DU-145 it was 11.7 µM (inactive).

In the case of `O=c1[nH]c(=O)n(C2C(CO)OC(CO)C2O)cc1F` (stereo not given), the GI50 in the test on NCI/ADR-RES, in the test with MDA-N, in the test on NCI-H522, with SF-539, in the test with A549 and with HCC 2998 was > 100 µM (inactive) in each case. The GI50 in the test with BT-549, with NCI-H460, in the test with NCI-H226, in the test with HOP-62, in the test on MDA-MB-231 and in the test with T47D was > 100 µM (inactive) each time. Moreover, the GI50 in the test on NCI-H23, in the test on ACHN, in the test with SNB-75, with EKVX, with LOX IMVI and in the test with OVCAR-8 was > 100 µM (inactive) in each case. Also, the GI50 in the test with CCRF-CEM and with DU-145 was > 100 µM (inactive) each time.

In the case of `CCc1nc(N)nc(N)c1-c1ccc(NCCN)c([N+](=O)[O-])c1`, the GI50 with NCI/ADR-RES is > 100 µM (inactive); with MDA-N, 6.92 µM (inactive); in the test on NCI-H522, 13.7 µM (inactive); in the test with SF-539, 11.6 µM (inactive); in the test on A549 it was 4.19 µM (inactive); in the test on HCC 2998 it was 10.4 µM (inactive). Moreover, the GI50 in the test with BT-549 was 36.1 µM (inactive); with NCI-H460, 2.75 µM (inactive); in the test with NCI-H226, > 96.8 µM (inactive); in the test on HOP-62, 18.2 µM (inactive); with MDA-MB-231 it was 20.2 µM (inactive); in the test on T47D it was 33.6 µM (inactive). In addition, the GI50 is 7.4 µM (inactive) in the test on NCI-H23; 34.9 µM (inactive) with ACHN; 19.7 µM (inactive) with SNB-75; 29 µM (inactive) with EKVX; 4.24 µM (inactive) in the test on LOX IMVI; 7.67 µM (inactive) with OVCAR-8. Also, the GI50 in the test on CCRF-CEM is 4.41 µM (inactive); in the test on DU-145 it was 20.5 µM (inactive).

Source of the values: ChEMBL document CHEMBL1201862, “PubChem BioAssay data set” (2004).
